Results reported in patent US5629198A (priority 1991, dated 1997).

Legend:
[1] = tested on: Molt-4/C18 cells infected with Molt-4/HTLV-IIIB culture supernatant; test: Inhibiting effect on cytopathy, MTT assay (Test Example 8 (2)); type: cell-based; conditions: Homo sapiens, MOLT-4, 96 h, read-out: Number of living cells
Experimental: (2) The inhibiting effects of test substances on the formation of multinucleated giant cells and on cytopathy in a Molt-4/C18 cell-infected system were investigated.
Molt-4/C18 cells in a logarithmic growth phase were inoculated in a proportion of 2×10^4 cells/well (20 μl) on a 96-well flat-bottom plate, and 30 μl of a culture supernatant of Molt-4/HTLV-IIIB cells were added. Then, solutions of the test substances in various concentrations were separately added in an amount of 50 μl, followed by their culture at 37° C. under conditions of 5% CO2. To wells for a positive control, 50 μl of a culture medium were added in place of the solution of each test substance, while to wells for a negative control, 30 μl of the culture medium were added instead of the culture supernatant. Defining the day the culture was started as Day 0, the culture was continuously conducted for 4 days to observe a state of formation of multinucleated giant cells and to count the number of living cells by the MTT assay.

MOLT-4 = test: Killing effect on uninfected cells (Test Example 1), trypan blue; type: cell-based, human; conditions: 3 days
Experimental: (§1) The cell killing effects of test substances were determined using a cell strain persistently infected with HIV in MOLT-4 cells and MOLT-4 cells.
(§2) MOLT4/HTLV-IIIB, MOLT4/ARV and MOLT4 cell strains were separately inoculated in proportions of 4×10^4 cells/well (200 μl) on a 96-well plate, and the above test substances in various concentrations were separately added in an amount of 20 μl thereto. After each cell sample was cultured for 3 days at 37° C. in the presence of 5% CO2, the culture was diluted to a triple or quadruple amount, thereby counting the number of living cells by a trypan blue dye exclusion test. As a control, 20 μl of PBS were added in place of each test substance. Each numerical value is expressed in terms of the percentage of living cells to the control.

[2] = in vivo; cited from earlier work
HTLV-IIIB in MT-4 cells = test: Anti-HIV effect: TCID50 of infectious virus from infected MT-4 cells (Test Example 5); type: cell-based, HIV (HTLV-IIIB); conditions: for TCID50 (quantity of infectious virus): 4 days, positive control 3.31 × 10^7; for proliferation inhibiting effect on HIV: summary
Experimental: The inhibitory effects of test substances on the cytopathy and HIV antigen production of MT-4 cells due to HIV infection were determined.
MT-4 cells belonging to a cell strain persistently infected with HTLV-1 are high in sensitivity to HIV and promptly die out when infected. MT-4/HIV cells which are MT-4 cells infected with HIV are used for screening anti-HIV agents making good use of this nature.
After MT-4 cells (1.2×10^7 cells) were infected for 2 hours at 37° C. with 3.2 ml of HTLV-IIIB (10^7 TCID50 /ml) obtained from a culture supernatant of a cell strain persistently infected with HIV, i.e., […], the cells were washed. After the cells were then inoculated on a 48-well microplate in a proportion of 1×10^5 cells/well, the test substances were separately added in an amount of 100 μl. As a negative control, there was used a culture obtained by adding 3.2 ml of a culture supernatant after culturing MOLT-4 cells for 3 days to MT-4 cells (4.7×10^6 cells), conducting culture for 2 hours at 37° C., washing the cells in the same manner as described above, inoculating them in a proportion of 1×10^5 cells/well and adding PBS in place of the test substances.
Upon elapsed time of 4 days after the culture, each supernatant was assayed on a P24gag protein based on an EIA kit produced by Abbott Labs, and the number of living cells was counted by the Trypan Blue dye exclusion method, and moreover, TCID50 indicative of an actual quantity of infectious virus was calculated.

[3] = tested on: cells persistently infected with HIV; conditions: cited from earlier work
MOLT-4/HTLV-IIIB = test: Killing effect on cells persistently infected with HIV (Test Example 1), trypan blue; type: cell-based, human; conditions: for killing effect on HIV-infected cells: summary
Experimental: as §1, §2

MOLT-4/ARV = test: as above; type: cell-based, human; conditions: 3 days
Experimental: as §1, §2

MT-4/LAV-infected system = conditions: cited from earlier work
[4] = Homo sapiens, MOLT-4, 72 h, 1 μM, read-out: living cells (percentage to the control)

Cc1cn([C@H]2C[C@H](N=[N+]=[N-])[C@@H](CO)O2)c(=O)[nH]c1=O [AZT, 3'-azido-3'-deoxythymidine]
viability at 25 µM ([1]; 25 (μM), 4 days, positive control 27): 84% | viability at 0.004 µM [1]: 42% | viability at 0.02 µM [1]: 69% | viability at 0.1 µM [1]: 79% | viability at 0.5 µM [1]: 84% | viability at 1 µM (MOLT-4; [4]): 55% | side effects [2]: a myelodepresant effect is remarkably observed as a side effect in addition to headache and gastrointestinal disorders | TCID50 (quantity of infectious virus) (HTLV-IIIB in MT-4 cells; 1 μM): 5.94 × 10^4 TCID50 /ml | effect on cells already infected with HIV [3]: no effect on cells already infected with HIV | viability at 1 µM (MOLT-4/HTLV-IIIB; Homo sapiens, MOLT-4, 72 h, 1 μM, 3 days, read-out: living cells (percentage to the control)): 71% | viability at 1 µM (MOLT-4/ARV; [4]): 82%

C=CC1=C(C)c2cc3[n-]c(cc4[n-]c(cc5nc(cc1n2)C(C)=C5C=C)c(C)c4CCC(=O)O)c(CCC(=O)O)c3C.[Cl-].[Fe+3] [Hemin]
living cells (percentage to the control) (MOLT-4; 10 μM): 98% | living cells (percentage to the control) (MOLT-4; 40 μM): 99% | TCID50 (quantity of infectious virus) (HTLV-IIIB in MT-4 cells; 10 μM): 1.52 × 10^7 TCID50 /ml | proliferation inhibiting effect on HIV (HTLV-IIIB in MT-4 cells): have a proliferation inhibiting effect on HIV | living cells (percentage to the control) (MOLT-4/HTLV-IIIB; 10 μM, 3 days): 100% | living cells (percentage to the control) (MOLT-4/HTLV-IIIB; 40 μM, 3 days): 90% | killing effect on HIV-infected cells (MOLT-4/HTLV-IIIB): no killing effect on HIV-infected cells | living cells (percentage to the control) (MOLT-4/ARV; 10 μM): 94% | living cells (percentage to the control) (MOLT-4/ARV; 40 μM): 93%

C=CC1=C(C)c2cc3[nH]c(cc4nc(cc5[nH]c(cc1n2)c(C)c5CCC(=O)O)C(CCC(=O)O)=C4C)c(C)c3C=C [protoporphyrin]
anti-HIV activity (MT-4/LAV-infected system): exhibits an anti-HIV activity | proliferation inhibiting effect on HIV (HTLV-IIIB in MT-4 cells): have a proliferation inhibiting effect on HIV | killing effect on HIV-infected cells (MOLT-4/HTLV-IIIB): no killing effect on HIV-infected cells
